Where a name gives a salt, the structure may show the parent alone. Read-outs that look alike come from different tables or passages of the source.

For assay [1], the system named is HCT-8 cells. Briefly: in vitro proliferating human colon adenocarcinoma (HCA) cell screen. The assay is classed as cell-based. Particulars: 60 - 65 hours with compound, nuclei count, 50% inhibition of growth, read-out: ID50 (the source's name). The protocol:
One test protocol is the in vitro proliferating human colon adenocarcinoma (HCA) cell screen. In this test, HCT-8 cells (HCA cell line received from Yale University) are trypsinized using trypsin-EDTA. A single cell suspension is achieved by passing the cells through a 26 gauge needle with a 20 cc syringe. A cell suspension is prepared using RPMI 1640 + 10% FCS + 50 ug/ml gentamicin sulfate with a cell concentration of approximately 30t000 cells/ml. The cell suspension is dispensed in Linbro 24-well plates; 1 ml/well. The plates are incubated for approximately 48 hours at 37 degrees C. in a 5% C02 atmosphere. At this time test compounds are added in the appropriate concentration. Five ul of the 200 ug/ml stock solution is added to each well in a primary test. Ten ul of the appropriate dilution is added to each well for a titration test. The plates are reincubated an additional 60 - 65 hours at 37 degrees C. in a 5% C02 atmosphere. The cells are lysed using a mix of cationic surfactant, glacial acetic acid and sodium chloride. Two ml of the lysed cell suspension from each well is added to 8 ml of diluent. The number of nuclei is determined using a Coulter counter (ZBI model), and a percent growth for each drug concentration is calculated. From this, an ID50 (molar concentration of compound that results in 50% inhibition of growth) is determined.

Assay [2] relates to mouse tumor line L1210. Briefly: growth inhibition of L1210 in suspension cell culture. In kind it is cell-based. Particulars: read-out: L1210 Leukemia In Vitro ID50. The protocol: In another test protocol, growth-inhibitory effects are measured against the mouse tumor line L1210 in suspension cell culture. Cell cultures were initiated at a density of 50,000 cells/ml in medium RPMI 1630 supplemented with 10 percent fetal calf serum. Composition of this culture medium and details of the culture procedure follow the published method (Journal of the National Cancer Institute 36, 405-415, 1966). Cultures are maintained at 37 degrees in stationary suspension culture under a 95 percent air + 5 percent C02 atmosphere. Test compounds are added to treated cultures at the time of initiation, and are present continually. After 72 hours, 40-fold dilutions of drug- treated and untreated control cultures are prepared in 0.9 percent NaCl solution, and cells are counted on an electronic particle counter. The growth-inhibitory effects are expressed as IDSO values, namely, test compound inhibitory dosages or concentrations required to decrease cell count in treated cultures to 50 percent of the cell count of untreated control cultures.

Assay [3] relates to lymphocytic leukemia P388. Kind of assay: in vivo lymphocytic leukemia P388 test. Set-up: species or system CD2Fl mice. Particulars: survival time treated/control. As for the experimental part:
Another test protocol is the in vivo lymphocytic leukemia P388 test. The animals used are either male or female CD2Fl mice, six or seven animals per test group. The tumor transplant is by intraperitoneal injection of dilute ascitic fluid containing cells of lymphocytic leukemia P388. The test compounds are administered intraperitoneally once daily for five consecutive days at various doses following tumor inoculation. The animals are weighed and survivors are recorded on a regular basis for 30 days. A compound is designated "toxic" if, at a given dose, all animals died prior to four days after the first injection of drug. A ratio of survival time for treated (T)/control (C) animals is calculated. A criterion for efficacy is a ratio T/C times 100 greater than or equal to 125. See Cancer Chemotherapy Reports, Part 3, 3, 1 (1972) for a comprehensive discussion of the protocol.

The test system of assay [4] is Bacillus subtilis 04555. Kind of assay: in vitro antibacterial/antifungal (ABF) agar-disk diffusion assay. In kind it is cell-based. Particulars: Dose 100 mg/ml, read-out: Inhibition Zone Diameter B. Subtilis. The protocol: (§1) Another test protocol is the in vitro anti- bacterial/antifungal (ABF) test. Compounds are tested for antimicrobial activity in an agar-disk diffusion assay, a standard microbiological technique for testing antibiotics. After incubation of each culture with a test compound, a zone of inhibition is determined. The zone diameter (mm) of active compounds ranges from a minimum of 13.5 mm to as high as 60 mm, with a greater diameter reflecting higher activity. For convenience, values are reported for the gram-negative bacterial species (Escherichia coli 04863), two gram positive bacteria (Bacillus subtilis 04555 and Streptococcus faecalis 05045 utilizing AM-09 medium), and one mycelial fungus (Penicillium avellaneum M2988).

The test system of assay [5] is Escherichia coli 04863. The assay is described as above. In kind it is cell-based. Particulars: Dose 500 mg/ml, read-out: Inhibition Zone Diameter E. Coli. The protocol: as §1
In assay [6] the test system is Penicillium avellaneum M2988. The description is as above. The assay is classed as cell-based. Particulars: Hamigera avellanea, read-out: Inhibition Zone Diameter P. avellaneum; for zone of inhibition at 500000 µg/mL: Dose 500 mg/ml. The protocol: as §1
Assay [7] concerns Streptococcus faecalis 05045. The description is as above. In kind it is cell-based. Particulars: Enterococcus faecalis, Dose 500 mg/ml, AM-09 medium, read-out: Inhibition Zone Diameter S. Faecalis. The protocol:
as §1

For assay [8], the system named is B16 melanoma. Briefly: solid tumor B16 melanoma in mice. Particulars: survival time treated/control. The assay is classed as in vivo. The protocol: Another test protocol utilizes the solid tumor B16 melanoma in mice. The tumor is inoculated by intraperitoneal injection. The test compounds are administered intraperitoneally once daily for nine consecutive days at various doses following tumor inoculation. A ratio of survival time for treated (T)/control (C) animals is calculated. A criterion for efficacy is a ratio T/C times 100 greater than or equal to 125. See Cancer Therapy Reviews, 7, 167 (1980) and references cited therein for further details and interpretation of the test.

Take `CCN(CC)CCN1C(=O)c2cc([N+](=O)[O-])cc3cc([N+](=O)[O-])cc(c23)C1=O` [CH2CH2NEt2, N-[2-(Diethylamino)ethyl]-3,6-dinitro-1.8-naphthalimide Hydrochloride]: the IC50 in assay [1] came to 960 nM; in assay [2] (L1210, 72 h), 350 nM. Further, the “P388 Leukemia In Mice T/C X100” value in assay [3] (Dose 1.56 mg/kg intraperitoneally once daily for five days) was 155%.

As to `O=C1c2cc([N+](=O)[O-])cc3cc([N+](=O)[O-])cc(c23)C(=O)N1CCN1CCCC1` [CH2CH2N(CH2)4, 3,6-Dinitro-N[2-(pyrrolidinyl)ethyl]-1,8-naphthalimide Hydrocholoride], the IC50 turned out to be 180 nM in assay [1] and 83 nM in assay [2] (L1210, 72 h). Besides, the zone of inhibition at 100000 µg/mL in assay [4] was found to be 16 mm. For the same compound, the results for the zone of inhibition at 500000 µg/mL in assay [5], in assay [6] and in assay [7] were 17 mm, 22 mm and 18 mm, respectively.

On to `O=C1c2cc([N+](=O)[O-])cc3cc([N+](=O)[O-])cc(c23)C(=O)N1CCN1CCCCC1` [CH2CH2N(CH2)5, 3,6-Dinitro-N-[2-(piperidinyl)ethyl]-1,8-naphthalimide, Hydrochloride], for which the IC50 in assay [1] worked out at 480 nM; in assay [2] (L1210, 72 h) it was 290 nM. The zone of inhibition at 100000 µg/mL in assay [4] came to 24 mm. Besides, the zone of inhibition at 500000 µg/mL in assay [5] stood at 16 mm; in assay [6], 26 mm; in assay [7], 19 mm. In addition, the “B16 Melanoma T/C X100” value in assay [8] (Dose 12.5 mg/kg intraperitoneally once daily for nine days) is reported as 135%.

Take `CN(C)CCN1C(=O)c2cc([N+](=O)[O-])cc3cc([N+](=O)[O-])cc(c23)C1=O` [CH2CH2NMe2, N-[2-(Dimethylamino)ethyl]-3,6,-dinitro-1,8-naphtalamide, Hydrochloride]: the IC50 in assay [2] (L1210, 72 hours, cell count 50 percent of untreated control) amounted to 36 nM. For the same compound, the “P388 Leukemia In Mice T/C X100” value in assay [3] (Dose 3.12 mg/kg intraperitoneally once daily for five days) is reported as 167%. Also, the “B16 Melanoma T/C X100” value in assay [8] (Dose 1.00 mg/kg intraperitoneally once daily for nine days) is on record as 125%.

With `O=C1c2cc([N+](=O)[O-])cc3cc([N+](=O)[O-])cc(c23)C(=O)N1CCN1CCOCC1` [3,6-Dinitro-N-[2-(morpholino)ethyl]-1,8-naphthalimide], the IC50 was 860 nM in assay [1] and 1100 nM in assay [2] (L1210, 72 h). Moreover, in assay [4], the zone of inhibition at 100000 µg/mL was determined as 22 mm. Moreover, in assay [6] (Dose 3000 mg/ml), the zone of inhibition at 3 g/mL was determined as 15 mm. Moreover, the zone of inhibition at 500000 µg/mL in assay [7] came out at 14 mm.

The values above are taken from EP0125439A2, “3,6-Disubstituted-1,8-naphthalimides and methods for their production and use” (WARNER-LAMBERT COMPANY, priority 1983, dated 1984).
